Reference: PubChem BioAssay AID1919014 (Molecular Pharmacology Branch, DTP, NCI, 2023)

Test system: NCI-H1341 complex spheroids, percent test/control
Assay: Anticancer human tumor NCI-H1341 cell line growth inhibition [AhR];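 note: spheroids exposed to agents for seven days before readout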
Conditions: for IC50: curve of first compound; for viability, T/C: stronger effect = lower value
How it was run: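 Complex tumor spheroids co-cultured with HUVEC and human MSC stroma; AhR antagonists tested in combination with standard-of-care and investigational agents. Top concentration at or near clinical Cmax (else 10 microM), half-log dilutions; growth expressed as percent test/control.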

[1] = second compound 0.1 µM, first compound 0.0316 µM
[2] = second compound 0.1 µM, first compound 0.1 µM
[3] = second compound 0.1 µM, first compound 0.316 µM
[4] = second compound 0.1 µM, first compound 1 µM
[5] = second compound 0.1 µM, first compound 3.16 µM
[6] = second compound 0.1 µM, first compound 10 µM
[7] = second compound 0.316 µM, first compound 0.0316 µM
[8] = second compound 0.316 µM, first compound 0.1 µM
[9] = second compound 0.316 µM, first compound 0.316 µM
[10] = second compound 0.316 µM, first compound 1 µM
[11] = second compound 0.316 µM, first compound 3.16 µM
[12] = second compound 0.316 µM, first compound 10 µM
[13] = second compound 1 µM, first compound 0.0316 µM
[14] = second compound 1 µM, first compound 0.1 µM
[15] = second compound 1 µM, first compound 0.316 µM
[16] = second compound 1 µM, first compound 1 µM
[17] = second compound 1 µM, first compound 3.16 µM
[18] = second compound 1 µM, first compound 10 µM
[19] = second compound 3.16 µM, first compound 0.0316 µM
[20] = second compound 3.16 µM, first compound 0.1 µM
[21] = second compound 3.16 µM, first compound 0.316 µM
[22] = second compound 3.16 µM, first compound 1 µM
[23] = second compound 3.16 µM, first compound 3.16 µM
[24] = second compound 3.16 µM, first compound 10 µM
[25] = second compound 10 µM, first compound 0.0316 µM
[26] = second compound 10 µM, first compound 0.1 µM
[27] = second compound 10 µM, first compound 0.316 µM
[28] = second compound 10 µM, first compound 1 µM
[29] = second compound 10 µM, first compound 3.16 µM
[30] = second compound 10 µM, first compound 10 µM

`CC(C)c1c(-c2ccccc2)nc2c(C#N)c[nH]n2c1=O` + Cc1ccccc1N=Nc1ccc(NC(=O)c2ccnn2C)c(C)c1 gave an IC50 (second compound 0.1 µM) of over 10000 nM, an IC50 (second compound 0.316 µM) of over 10000 nM and an IC50 (second compound 1 µM) of over 10000 nM. For the same compound, the IC50 (second compound 3.16 µM) was over 10000 nM, the IC50 (second compound 10 µM) was under 31.6 nM and the viability, T/C [1] was 84.2%. It also gave a viability, T/C [2] of 87.6%, a viability, T/C [3] of 86.5% and a viability, T/C [4] of 87.5%. The viability, T/C [5] was 81.7%, the viability, T/C [6] was 96.4% and the viability, T/C [7] was 99%. For the same compound, the viability, T/C [8] was 82.8%, the viability, T/C [9] was 84.2% and the viability, T/C [10] was 92.2%. For the same compound, the viability, T/C [11] was 97.5%, the viability, T/C [12] was 83.2% and the viability, T/C [13] was 90.1%. For the same compound, the viability, T/C [14] was 93.8%, the viability, T/C [15] was 74% and the viability, T/C [16] was 81.7%. For the same compound, the viability, T/C [17] was 83.8%, the viability, T/C [18] was 95.7% and the viability, T/C [19] was 72.2%. It also gave a viability, T/C [20] of 77.1%, a viability, T/C [21] of 59.5% and a viability, T/C [22] of 72.2%. It also gave a viability, T/C [23] of 73.3%, a viability, T/C [24] of 76.4% and a viability, T/C [25] of 44.9%. It also gave a viability, T/C [26] of 49%, a viability, T/C [27] of 52% and a viability, T/C [28] of 48.6%. For the same compound, the viability, T/C [29] was 59.3% and the viability, T/C [30] was 42.9%.

`CC1COCCN1c1cc(-c2ccnn2C)c2ccnc(-c3ccn[nH]3)c2n1` (stereo not given) + Cc1ccccc1N=Nc1ccc(NC(=O)c2ccnn2C)c(C)c1 showed an IC50 (second compound 0.1 µM) of 97.6 nM, an IC50 (second compound 0.316 µM) of 60.6 nM and an IC50 (second compound 1 µM) of 113 nM. For the same compound, the IC50 (second compound 3.16 µM) was 67.5 nM, the IC50 (second compound 10 µM) was 9.13 nM and the viability, T/C (second compound 0.1 µM, first compound 0.00316 µM) was 98.2%. It also gave a viability, T/C (second compound 0.1 µM, first compound 0.01 µM) of 99.1%, a viability, T/C [1] of 74.2% and a viability, T/C [2] of 48.5%. For the same compound, the viability, T/C [3] was 38.3%, the viability, T/C [4] was 26.2% and the viability, T/C (second compound 0.316 µM, first compound 0.00316 µM) was 104%. It also gave a viability, T/C (second compound 0.316 µM, first compound 0.01 µM) of 102%, a viability, T/C [7] of 65.6% and a viability, T/C [8] of 39.3%. The viability, T/C [9] was 34.8%, the viability, T/C [10] was 29% and the viability, T/C (second compound 1 µM, first compound 0.00316 µM) was 82.6%. It also gave a viability, T/C (second compound 1 µM, first compound 0.01 µM) of 92%, a viability, T/C [13] of 70.8% and a viability, T/C [14] of 52.6%. It also gave a viability, T/C [15] of 34.3%, a viability, T/C [16] of 25.9% and a viability, T/C (second compound 3.16 µM, first compound 0.00316 µM) of 84%. The viability, T/C (second compound 3.16 µM, first compound 0.01 µM) was 72.7%, the viability, T/C [19] was 55.1% and the viability, T/C [20] was 44.4%. It also gave a viability, T/C [21] of 40.8%, a viability, T/C [22] of 27.6% and a viability, T/C (second compound 10 µM, first compound 0.00316 µM) of 53.8%. It also gave a viability, T/C (second compound 10 µM, first compound 0.01 µM) of 51%, a viability, T/C [25] of 44.3% and a viability, T/C [26] of 37.1%. The viability, T/C [27] was 30.7% and the viability, T/C [28] was 25.6%.

In the case of `COc1ccc([C@@H](O)c2cc(-c3ncnc4cc(N5CCOCC5)ccc34)c(F)cc2Cl)nn1` + Cc1ccccc1N=Nc1ccc(NC(=O)c2ccnn2C)c(C)c1, the IC50 (second compound 0.1 µM) is reported as 903 nM, the IC50 (second compound 0.316 µM) is reported as 791 nM and the IC50 (second compound 1 µM) is reported as 631 nM. It also gave an IC50 (second compound 3.16 µM) of 461 nM, an IC50 (second compound 10 µM) of under 31.6 nM and a viability, T/C [1] of 98.3%. The viability, T/C [2] was 91.6%, the viability, T/C [3] was 70.8% and the viability, T/C [4] was 51.5%. The viability, T/C [5] was 19.3%, the viability, T/C [6] was 8.09% and the viability, T/C [7] was 87.2%. The viability, T/C [8] was 68.9%, the viability, T/C [9] was 70.6% and the viability, T/C [10] was 46.4%. For the same compound, the viability, T/C [11] was 19.9%, the viability, T/C [12] was 8.42% and the viability, T/C [13] was 75.3%. The viability, T/C [14] was 67.9%, the viability, T/C [15] was 62.8% and the viability, T/C [16] was 42%. The viability, T/C [17] was 21.6%, the viability, T/C [18] was 8.86% and the viability, T/C [19] was 73%. The viability, T/C [20] was 59.9%, the viability, T/C [21] was 58.7% and the viability, T/C [22] was 38.5%. It also gave a viability, T/C [23] of 18%, a viability, T/C [24] of 5.82% and a viability, T/C [25] of 47.2%. It also gave a viability, T/C [26] of 51.8%, a viability, T/C [27] of 39.3% and a viability, T/C [28] of 29.2%. It also gave a viability, T/C [29] of 14.3% and a viability, T/C [30] of 7.84%.

With `O=C(C=Cn1cnc(-c2cc(C(F)(F)F)cc(C(F)(F)F)c2)n1)NNc1cnccn1` + Cc1ccccc1N=Nc1ccc(NC(=O)c2ccnn2C)c(C)c1 the IC50 (second compound 0.1 µM) was 51.3 nM, the IC50 (second compound 0.316 µM) was 49.7 nM and the IC50 (second compound 1 µM) was 53.6 nM. The IC50 (second compound 3.16 µM) was under 9.49 nM, the IC50 (second compound 10 µM) was under 9.49 nM and the viability, T/C (second compound 0.1 µM, first compound 0.00949 µM) was 85.4%. For the same compound, the viability, T/C (second compound 0.1 µM, first compound 0.03 µM) was 63.4%, the viability, T/C (second compound 0.1 µM, first compound 0.0949 µM) was 35.2% and the viability, T/C (second compound 0.1 µM, first compound 0.3 µM) was 12.9%. It also gave a viability, T/C (second compound 0.1 µM, first compound 0.949 µM) of 8.66%, a viability, T/C (second compound 0.1 µM, first compound 3 µM) of 7.84% and a viability, T/C (second compound 0.316 µM, first compound 0.00949 µM) of 69.5%. It also gave a viability, T/C (second compound 0.316 µM, first compound 0.03 µM) of 59%, a viability, T/C (second compound 0.316 µM, first compound 0.0949 µM) of 38.3% and a viability, T/C (second compound 0.316 µM, first compound 0.3 µM) of 15.2%. For the same compound, the viability, T/C (second compound 0.316 µM, first compound 0.949 µM) was 9.67%, the viability, T/C (second compound 0.316 µM, first compound 3 µM) was 6.9% and the viability, T/C (second compound 1 µM, first compound 0.00949 µM) was 67.7%. It also gave a viability, T/C (second compound 1 µM, first compound 0.03 µM) of 66.7%, a viability, T/C (second compound 1 µM, first compound 0.0949 µM) of 34.5% and a viability, T/C (second compound 1 µM, first compound 0.3 µM) of 15.4%. For the same compound, the viability, T/C (second compound 1 µM, first compound 0.949 µM) was 8.51%, the viability, T/C (second compound 1 µM, first compound 3 µM) was 8.16% and the viability, T/C (second compound 3.16 µM, first compound 0.00949 µM) was 47.9%. For the same compound, the viability, T/C (second compound 3.16 µM, first compound 0.03 µM) was 40.7%, the viability, T/C (second compound 3.16 µM, first compound 0.0949 µM) was 30.6% and the viability, T/C (second compound 3.16 µM, first compound 0.3 µM) was 13.2%. It also gave a viability, T/C (second compound 3.16 µM, first compound 0.949 µM) of 11.4%, a viability, T/C (second compound 3.16 µM, first compound 3 µM) of 6.99% and a viability, T/C (second compound 10 µM, first compound 0.00949 µM) of 40.7%. It also gave a viability, T/C (second compound 10 µM, first compound 0.03 µM) of 35%, a viability, T/C (second compound 10 µM, first compound 0.0949 µM) of 24.2% and a viability, T/C (second compound 10 µM, first compound 0.3 µM) of 15.6%. For the same compound, the viability, T/C (second compound 10 µM, first compound 0.949 µM) was 10.8% and the viability, T/C (second compound 10 µM, first compound 3 µM) was 6.32%.
